Values after ≈ are worked out from the molar mass of the structure shown. One block for each compound: values may come before it.
Experiments:
Vibrio alginolyticus [1] = assay: Antimicrobial activity against Vibrio alginolyticus assessed as bacterial growth inhibition by broth dilution assay; format: functional
Vibrio parahaemolyticus [2] = assay: Antimicrobial activity against Vibrio parahaemolyticus assessed as bacterial growth inhibition by broth dilution assay; format: functional
Vibrio anguillarum [3] = assay: Antimicrobial activity against Vibrio anguillarum assessed as bacterial growth inhibition by broth dilution assay; format: functional
Vibrio harveyi [4] = assay: Antimicrobial activity against Vibrio harveyi BB120 assessed as bacterial growth inhibition by bioluminescence based Quorum-Sensing assay; format: functional, organism-based
Vibrio harveyi [5] = assay: Antimicrobial activity against Vibrio harveyi QDIO-7 assessed as bacterial growth inhibition by microplate reader assay; format: functional
Vibrio parahaemolyticus [6] = assay: Antimicrobial activity against Vibrio parahaemolyticus assessed as bacterial growth inhibition; format: functional
Vibrio anguillarum [7] = assay: Antimicrobial activity against Vibrio anguillarum assessed as zone of inhibition per disc at 100 ug measured after 24 hrs by disc diffusion assay; format: functional; conditions: read-out: IZ
Vibrio harveyi [8] = assay: Antibacterial activity against Vibrio harveyi assessed as bacterial growth inhibition; format: functional
Vibrio anguillarum [9] = assay: Antibacterial activity against Vibrio anguillarum assessed as bacterial growth inhibition; format: functional
Vibrio harveyi [10] = assay: Antimicrobial activity against Vibrio harveyi assessed as bacterial growth inhibition; format: functional
Vibrio anguillarum [11] = assay: Antimicrobial activity against Vibrio anguillarum assessed as bacterial growth inhibition; format: functional
Vibrio anguillarum [12] = assay: Antimicrobial activity against Vibrio anguillarum assessed as bacterial growth inhibition by microplate reader assay; format: functional
Vibrio harveyi [13] = assay: Antimicrobial activity against Vibrio harveyi assessed as bacterial growth inhibition by microplate reader assay; format: functional
Vibrio parahaemolyticus [14] = assay: Antimicrobial activity against Vibrio parahaemolyticus assessed as zone of inhibition; format: functional
Vibrio alginolyticus [15] = assay: Antimicrobial activity against Vibrio alginolyticus assessed as zone of inhibition; format: functional
Vibrio vulnificus = assay: Antimicrobial activity against Vibrio vulnificus MCCC E1758 assessed as bacterial growth inhibition by resazurin dye based assay; format: functional
Vibrio anguillarum [16] = assay: Antimicrobial activity against Vibrio anguillarum QDIO-6 assessed as bacterial growth inhibition by microtiter plate assay; format: functional
Vibrio parahaemolyticus [17] = assay: Antimicrobial activity against Vibrio parahaemolyticus ATCC 17802 assessed as bacterial growth inhibition by microplate reader assay; format: functional

MIC (Vibrio alginolyticus [1]): 1.56 µM
MIC (Vibrio anguillarum [3]): 1.56 µM
Compound: C=C(C)[C@H]1COc2c(C)cc3oc4c(C[C@H](OC(C)=O)C(C)(C)O)ccc(O)c4c(=O)c3c2[C@@H]1O
MIC (Vibrio parahaemolyticus [2]): 1.56 µM

Compound: O=C(/C=C/CCl)O[C@@H]1COC(=O)C1
IC50 (Vibrio harveyi [4]): 5.6 µM

MIC (Vibrio harveyi [5]): 4 µg/mL
Compound: O=C1CC[C@@H](c2ccc(O)c3c2C(=O)CCC3=O)c2cccc(O)c21

Compound: COc1cc(O)c2c(c1)C(=O)C1=C(C2=O)[C@H](O)[C@@H](O)[C@@](C)(O)C1
MIC (Vibrio parahaemolyticus [6]): 25 µM

Compound: O=C1N[C@H](Cc2ccccc2)C(=O)N2CCC[C@@H]12
zone of inhibition at 100 µg/disc (Vibrio anguillarum [7]): 24 mm

Compound: O=C1N[C@@H](Cc2ccccc2)C(=O)N2CCC[C@@H]12
zone of inhibition at 100 µg/disc (Vibrio anguillarum [7]): 25 mm

MIC (Vibrio alginolyticus [1]): 3.1 µM
MIC (Vibrio anguillarum [3]): 3.1 µM
Compound: CC(C)(O)[C@H](O)CC[C@]1(C)[C@@H](O)CC[C@@]2(C)[C@H]1CC[C@H]1Cc3c([nH]c4ccccc34)[C@@]12C
MIC (Vibrio parahaemolyticus [2]): 6.3 µM

MIC (Vibrio harveyi [8]): 32 µg/mL (≈ 158 µM)
MIC (Vibrio anguillarum [9]): 0.5 µg/mL
Compound: C[C@H](O)/C=C1/C(=O)O[C@H]([C@@H](C)O)[C@@H]1O

MIC (Vibrio alginolyticus [1]): 1.56 µM
MIC (Vibrio anguillarum [3]): 1.56 µM
Compound: C=C(C)[C@H]1COc2c(C)cc3oc4c([C@@H](OC)[C@@H](O)C(C)(C)O)ccc(O)c4c(=O)c3c2[C@@H]1OC(C)=O
MIC (Vibrio parahaemolyticus [2]): 1.56 µM

MIC (Vibrio harveyi [10]): 65 µg/mL (≈ 216 µM)
MIC (Vibrio anguillarum [11]): 65 µM
Compound: C/C=C/CC/C=C/c1c(O)cc(CC=C(C)C)c(O)c1C=O

Compound: CCCCCc1cc(O)c2ccccc2n1
MIC (Vibrio harveyi [8]): 4 µg/mL (≈ 18.6 µM)

MIC (Vibrio anguillarum [12]): 4 µg/mL
MIC (Vibrio harveyi [13]): 4 µg/mL
Compound: C[C@H]1CC[C@H]2[C@@H](C=C[C@H](C)[C@]2(C)C(=O)CCO)[C@@H]1O

Compound: CC(C)C[C@H]1NC(=O)[C@H]2C[C@H](O)CN2C1=O
inhibition zone (IZ) (Vibrio parahaemolyticus [14]): 14 mm
inhibition zone (IZ) (Vibrio alginolyticus [15]): 22 mm

Compound: C[C@@H](O)CCCCC[C@H](C)[C@@H]1C=CC(=O)O1
MIC (Vibrio parahaemolyticus [2]): 25 µM

MIC (Vibrio vulnificus): 15.6 µg/mL (≈ 61.8 µM)
Compound: CCOC(=O)Cc1cc(O)cc(O)c1C(=O)CC

Compound: O=C1N[C@H](Cc2ccccc2)C(=O)N2C[C@@H](O)C[C@@H]12
inhibition zone (IZ) (Vibrio parahaemolyticus [14]): 12 mm
inhibition zone (IZ) (Vibrio alginolyticus [15]): 20 mm

Compound: CC[C@@H](C)[C@H](/C=C/C(=C/CC[C@@H](C)C[C@H](C)[C@H]1C[C@@H](O)[C@H](C)CC/C=C/[C@H](C)C/C=C(\C)[C@H](O)CCC[C@@H](O)[C@H](C)/C=C/C(=O)O1)CO)OC(C)=O
MIC (Vibrio parahaemolyticus [6]): 1.56 µg/mL

Compound: CC[C@@H](C)[C@@H](O)/C=C/C(C)=C/CC[C@@H](C)C[C@H](C)[C@H]1C[C@@H](O)[C@H](C)CC/C=C/[C@H](C)C/C=C(\C)[C@H](O)CCC[C@@H](O)[C@H](C)/C=C/C(=O)O1
MIC (Vibrio parahaemolyticus [6]): 1.56 µg/mL

MIC (Vibrio harveyi [10]): 65 µg/mL (≈ 342 µM)
MIC (Vibrio anguillarum [11]): 65 µM
Compound: CC(C)=CCc1ccc(O)c(C=O)c1

Compound: CC(C)C[C@@H]1NC(=O)[C@H]2C[C@H](O)CN2C1=O
inhibition zone (IZ) (Vibrio parahaemolyticus [14]): 12 mm
inhibition zone (IZ) (Vibrio alginolyticus [15]): 20 mm

Compound: CC[C@H]1/C=C/CC[C@@H](C)[C@H](O)C[C@H]([C@@H](CO)C[C@H](C)CC[C@H](O)[C@H](C)/C=C/[C@H](O)C(C)C)OC(=O)/C=C/[C@](C)(O)[C@H](O)CCC[C@@H](O)[C@H](C)CC1
MIC (Vibrio parahaemolyticus [6]): 1.56 µg/mL

Compound: CO[C@@H]1CC(=O)/C=C/C[C@@H](C)OC(=O)C[C@H](O)C1
MIC (Vibrio parahaemolyticus [2]): 25 µM

MIC (Vibrio anguillarum [9]): 10 µM
Compound: CC(C)CCC[C@@](C)(O)c1ccc(C(=O)O)cc1O
MIC (Vibrio parahaemolyticus [6]): 5 µM

Compound: C[C@H]1[C@H]([C@@]2(C)CCC([C@](C)(O)CO)O2)CC[C@@]1(C)O (stereo partly specified)
inhibition zone (IZ) (Vibrio parahaemolyticus [14]): 6.2 mm

Compound: COc1ccc(O)c(-c2cc(OC)ccc2O)c1
MIC (Vibrio parahaemolyticus [2]): 10 µg/mL

MIC (Vibrio anguillarum [16]): 2 µg/mL
Compound: C[C@@H]1CCCCC2=C(O)C(=O)C[C@H]2C(=O)O1

MIC (Vibrio vulnificus): 15.6 µg/mL (≈ 55.7 µM)
Compound: CCOC(=O)Cc1cc(OC)cc(OC)c1C(=O)CC

Compound: O=C1c2cc(O)cc(O)c2C(=O)c2c1cc(O)c(C(CO)CCO)c2O (stereo unspecified)
MIC (Vibrio parahaemolyticus [17]): 12 µg/mL

Compound: CC[C@@H](C)[C@@H](O)/C=C/C=C/CC[C@@H](C)C[C@H](C)[C@H]1C[C@@H](O)[C@H](C)CC/C=C/[C@H](C)C/C=C(\C)[C@H](O)CCC[C@@H](OC)[C@H](C)/C=C/C(=O)O1
MIC (Vibrio parahaemolyticus [6]): 1.56 µg/mL

MIC (Vibrio anguillarum [11]): 12.5 µg/mL
Compound: CCC[C@@H]1C(C)=C[C@@H]2C[C@H](C)CC[C@H]2[C@]1(C)C(=O)C1=C(O)C(=O)NC1=O

MIC (Vibrio harveyi [8]): 32 µg/mL (≈ 145 µM)
MIC (Vibrio anguillarum [9]): 0.5 µg/mL
Compound: CC(O)C(Cl)C1=C[C@H]([C@H](C)O)OC1=O (stereo partly specified)

MIC (Vibrio alginolyticus [1]): 25 µg/mL
MIC (Vibrio anguillarum [3]): 25 µg/mL
Compound: C/C(=C\[C@H]1OC(=O)[C@H](C)[C@@H]1C)[C@H]1CCC2=C3C=CC4=CC(=O)CC[C@]4(C)[C@H]3CC[C@@]21C
MIC (Vibrio parahaemolyticus [2]): 25 µg/mL

MIC (Vibrio anguillarum [12]): 4 µg/mL
MIC (Vibrio harveyi [13]): 4 µg/mL
Compound: C[C@H]1C[C@H](O)[C@H]2[C@@H](C=C[C@@](C)(O)[C@]2(C)C(=O)CCO)C1

Compound: COC(=O)C[C@H](O)COC(=O)/C=C/CCl
IC50 (Vibrio harveyi [4]): 14.6 µM

MIC (Vibrio alginolyticus [1]): 1.56 µM
MIC (Vibrio anguillarum [3]): 1.56 µM
Compound: C=C(C)[C@H]1COc2c(C)cc3oc4c([C@@H](OC)[C@@H](O)C(=C)C)ccc(O)c4c(=O)c3c2[C@@H]1OC(C)=O
MIC (Vibrio parahaemolyticus [2]): 1.56 µM

Compound: O=C1c2cccc(O)c2C(=O)c2c1cc(O)c(C(CO)CCO)c2O (stereo unspecified)
MIC (Vibrio parahaemolyticus [17]): 24 µg/mL
